In US20230406849A1, “KRAS INHIBITORS FOR TREATMENT OF CANCERS” (TYLIGAND BIOSCIENCE (SHANGHAI) LIMITED, priority 2020, published 2023):
pIC50: −log10 of the molar value. Where two headings read alike, the source gives them in different places.

Assays:
[1] = Cassette pharmacokinetic experiment in rats (IV); format: in vivo; conditions: rat, plasma, 1 mg/kg, male SD rats, tail vein IV, 1 mg/mL each compound at 1 mL/kg
Text: 2.1 Pharmacokinetic Properties of Some Compounds of the Present Disclosure Evaluated by Cassette Pharmacokinetic Experiments in Rats.
[Test materials]: Male SD rats, age: 6-8 weeks, body weight 220-250 g, purchased from Zhaoyan (Suzhou) New Drug Research Center Co., Ltd.; Tolbutamide (Aladdin, Cat #H1401054); Sulfobutyl-(Captisol, Shandong Binzhou Zhiyuan Biological Technology Co., Ltd, Cat #20191013); Propylene glycol (15)-stearate (Solutol, Meilun Bio, Cat #50206A); DMSO (Vetec Company, Cat #WXBD0293V); acetonitrile (Sigma-Aldrich, Cat #WXBD1744V); Methanol (Sigma-Aldrich, Cat #WXBD2831V).
[Experimental procedure]: The compound combination was prepared in a solvent of 5% DMSO/10% Solutol/85% (20% Captisol), and the final concentration of each compound was 1 mg/mL. The SD rats were treated with the compound preparation in 1 mL/kg by tail vein IV injection, and blood samples were collected at the time points of 5 min, 15 min, 30 min, 1 h, 2 h, 4 h, 8 h, and 24 h via external jugular vein puncture, centrifuged at low temperature for 20 minutes to collect plasma samples, which were stored at −80° C. until analysis.
[Sample analysis]: Establishing LC-MS/MS compound analysis method
Standard curve preparation: 20 μL of lmg/mL DMSO stock solution for each compound was aspirated and transferred to […] of 50% methanol working solution, and the resulting solution was serially diluted to obtain a standard curve working solution with concentrations of 20000, 10000, 5000, 1000, 500, 100, 50, 20 and […]. Then 5 µL of this standard curve working solution was mixed with 45 μL rat blank plasma to give a standard curve with concentrations of 2000, 1000, 500, 100, 50, 10, 2 and 1 ng/mL for quantification of unknown samples.
Sample pretreatment: 50 μL of unknown plasma sample or standard curve sample was mixed with 250 μL of acetonitrile containing internal standard as a precipitant. The plasma protein was precipitated, extracted for test compounds, and centrifuged at low temperature for 20 minutes. The supernatant was taken, mixed with 0.1% formic acid aqueous solution, and 5 μL of the resulting solution was aspirated for blood concentration analysis.
[Data processing]: A standard curve was plotted using mass spectrometry software, to quantify unknown samples, and pharmacokinetic parameters are calculated by Winnonlin 8.2 using the drug concentration of unknown samples at each time point.

[2] = tested on: human non-small cell lung cancer cells NCI-H358 with KRas G12C mutation; assay: NCI-H358 cell proliferation, CellTiter-Glo Luminescent Cell Viability Assay; format: cell-based; conditions: for inhibition at 1 µM: 1 μM compound, read-out: Inhibition rate % (1 μM)
Text: This assay verified the inhibitory activity of the compounds of the present disclosure on the proliferation of human non-small cell lung cancer cells NCI-H358 with KRas G12C mutation by using Promega's CellTiter-Glo® Luminescent Cell Viability Assay kit.
[Test materials]: NCI-H358 cell line (Cell Resource Center, IBMS, CAMS/PUMC, Item number: 3111C0001CCC000470), 96-well transparent flat-bottomed black-walled cell culture plate (Greiner Bio one, Cat #655096), RPMI-1640 Medium (GE, Cat #SH30809.01), Fetal Bovine Serum FBS (Thermo Fisher, Cat #10099-141), CellTiter-Glo® Luminescent Cell Viability Assay Kit (Promega, Cat #G7573), PBS (Solarbio, Cat #P1020), Trypsin (Thermo Fisher, Cat #25200072), DMSO (Sigma, Cat #D2650), Methyl cellulose (SIGMA, Cat #9004-67-5).
[Experimental procedure]: 180 μL of cell suspension (RPMI1640 solution with 10% FBS and 1% methyl cellulose) was charged to a 96-well cell culture plate at a density of 1500 cells/well. A control group containing no cells, no compounds and only 3D complete medium (RPMI 1640 solution with 1! Methyl cellulose and 10% FBS) (i.e. culture medium control) and a control group containing no compounds but cells (i.e. cell control) were set. AMG510 or the following reference compounds were used as positive controls. The cell plate was placed in a cell incubator overnight. A 10-fold drug solution (RPMI1640 solution with 10% FBS and 1% DMSO) was prepared at a concentration of 10 μM, and 20 μL of this solution was added to each well of the 96-well plate seeded with cells, so that the final concentration of the compounds in each well was 1 μM, and the DMSO concentration […] replicate wells were set up for each compound. The solutions of AMG510 or the following reference compounds were prepared in the same way and added to the positive control wells. The cell plate was placed in a cell incubator and cultured for 120 h. For endpoint detection, the CellTiter-Glo reagent was melted, and the cell plate was moved to room temperature to equilibrate for 30 minutes, added with 100 µL of CellTiter-Glo to each well, and shaken on an orbital shaker for 5 minutes to fully lyse the cells. The plate was kept at room temperature for 20 minutes to stabilize the luminescence signal, and the luminescence value of each well was full wavelength scanned with a multi-functional microplate reader (Molecular Devices, Spectramax M3 microplate reader).
[Test samples] The compounds of Examples 1-39, and reference compound A
[Data Analysis] The following formula was used to calculate the cell inhibition rate under the action of each concentration of the compounds:
Inhibition rate %=[1−(LumDrug to be tested−LumCulture medium control)/(LumCell control−LUMCulture medium control)]×100%
IC50 values were calculated using GraphPad Prism 7.0 software, nonlinear Sigmoidal regression was used to fit the data to obtain a dose-response curve.

For `C=C(F)C(=O)N1CCN(c2c(C#N)cnc3c(F)c(-c4ccc(F)c5sc(N)nc45)c(Cl)cc23)CC1` [Example 16, 7-(2-Amino-7-fluorobenzo[d]thiazol-4-yl)-6-chloro-8-fluoro-4-(4-(2-fluoroaryloxy)piperazin-1-yl)quinoline-3-carbonitrile], the AUC(0-t) [1] was 2790 ng·h/mL, the clearance [1] was 5.93 mL/min/kg and the half-life [1] was 3.5 h.
Compound `C=CC(=O)N1CCN(c2c(C#N)c(-c3ccnn3CCN(C)C)nc3c(F)c(-c4ccc(F)c5sc(N)nc45)c(Cl)cc23)C[C@H]1C` [Example 7, 4-((R)-4-acryloyl-3-methylpiperazin-1-yl)-7-(2-amino-7-fluorobenzo[d]thiazol-4-yl)-6-chloro-2-(1-(2-(dimethylamino)ethyl)-1H-pyrazol-5-yl)-8-fluoroquinoline-3-carbonitrile] has an inhibition at 1 µM ([2]; 120 h) of 90% and a pIC50 ([2]; 120 h, read-out: IC50) of 6.59.
Work on `C=CC(=O)N1CCN(c2c(C#N)c(OC)nc3c(F)c(-c4ccc(F)c5sc(N)nc45)c(Cl)cc23)CC1` [Example 13, 4-(4-Acryloylpiperazin-1-yl)-7-(2-amino-7-fluorobenzo[d]thiazol-4-yl)-6-chloro-8-fluoro-2-methoxyquinoline-3-carbonitrile] yielded an AUC(0-t) [1] of 1950 ng·h/mL, a clearance [1] of 8.58 mL/min/kg and a half-life [1] of 1.37 h.
Work on `C=CC(=O)N1CCN(c2c(C#N)c(-c3cccc(CN(C)C)c3)nc3c(F)c(-c4ccc(F)c5sc(N)nc45)c(Cl)cc23)C[C@H]1C` [Example 6, 4-((R)-4-acryloyl-3-methylpiperazin-1-yl)-7-(2-amino-7-fluorobenzo[d]thiazol-4-yl)-6-chloro-2-(3-((dimethylamino)methyl)phenyl)-8-fluoroquinoline-3-carbonitrile] yielded an inhibition at 1 µM ([2]; 120 h) of 95%, a pIC50 ([2]; 120 h, read-out: IC50) of 7.77 and a pIC50 ([2]; read-out: IC50 value) greater than 7.70.
With `C=CC(=O)N1CCN(c2c(C#N)c(-c3ccnn3CCN(C)C)nc3c(F)c(-c4ccc(F)c5sc(N)nc45)c(Cl)cc23)CC1` [Example 4, 4-(4-Acryloylpiperazin-1-yl)-7-(2-amino-7-fluorobenzo[d]thiazol-4-yl)-6-chloro-2-(1-(2-(dimethylamino)ethyl)-1H-pyrazol-5-yl)-8-fluoroquinoline-3-carbonitrile] the inhibition at 1 µM ([2]; 120 h) was 94.8% and the pIC50 ([2]; 120 h, read-out: IC50) was 7.28.
`C=CC(=O)N1CCN(c2c(C#N)c(N)nc3c(F)c(-c4c(F)ccc5sc(N)nc45)c(Cl)cc23)CC1` [Example 34, 4-(4-Acryloylpiperazin-1-yl)-2-amino-7-(2-amino-5-fluorobenzo[d]thiazol-4-yl)-6-chloro-8-fluoroquinoline-3-carbonitrile] showed a pIC50 ([2]; read-out: IC50 value) greater than 7.30.
`C=CC(=O)N1CCN(c2c(C#N)cnc3c(OC)c(-c4ccc(F)c5sc(N)nc45)c(Cl)cc23)CC1` [Example 39, 4-(4-Acryloylpiperazin-1-yl)-7-(2-amino-7-fluorobenzo[d]thiazol-4-yl)-6-chloro-8-methoxy quinoline-3-carbonitrile] showed a pIC50 ([2]; read-out: IC50 value) greater than 7.70.
Work on `C=CC(=O)N1CCN(c2c(C#N)cnc3c(F)c(-c4c(C)ccc5[nH]ncc45)c(Cl)cc23)CC1` [Ref. Comp. B, reference compound] yielded a pIC50 ([2]; 120 h, read-out: IC50) of 6.46.
`C=CC(=O)N1CCN(c2c(C#N)c(N)nc3c(F)c(-c4ccc(F)c5sc(N)nc45)c(Cl)cc23)CC1` [Example 20, 4-(4-Acryloylpiperazin-1-yl)-2-amino-7-(2-amino-7-fluorobenzo[d]thiazol-4-yl)-6-chloro-8-fluoroquinoline-3-carbonitrile] gave a pIC50 ([2]; read-out: IC50 value) greater than 7.30.
`C=CC(=O)N1CCN(c2c(C#N)c(C)nc3c(F)c(-c4ccc(F)c5sc(N)nc45)c(Cl)cc23)C[C@@H]1CC#N` [Example 32] gave a pIC50 ([2]; read-out: IC50 value) greater than 7.30.
`C=CC(=O)N1CCN(c2c(C#N)c(-c3ccnn3C)nc3c(F)c(-c4ccc(F)c5sc(N)nc45)c(Cl)cc23)CC1` [Example 14, 4-(4-Acryloylpiperazin-1-yl)-7-(2-amino-7-fluorobenzo[d]thiazol-4-yl)-6-chloro-8-fluoro-2-(1-methyl-1H-pyrazol-5-yl)quinoline-3-carbonitrile] gave an AUC(0-t) [1] of 1100 ng·h/mL, a clearance [1] of 15.1 mL/min/kg and a half-life [1] of 1.58 h.
`C=CC(=O)N1CCN(c2c(C#N)c(-c3cn(C)nc3C)nc3c(F)c(-c4ccc(F)c5sc(N)nc45)c(Cl)cc23)CC1` [Example 15, 4-(4-Acryloylpiperazin-1-yl)-7-(2-amino-7-fluorobenzo[d]thiazol-4-yl)-6-chloro-2-(1,3-dimethyl-1H-pyrazol-4-yl)-8-fluoroquinoline-3-carbonitrile] showed an AUC(0-t) [1] of 717 ng·h/mL, a clearance [1] of 23.3 mL/min/kg and a half-life [1] of 1.03 h.
In the case of `C=CC(=O)N1CCN(c2c(C#N)c(NC(C)=O)nc3c(F)c(-c4ccc(F)c5sc(N)nc45)c(Cl)cc23)CC1` [Example 37, N-(4-(4-acryloylpiperazin-1-yl)-7-(2-amino-7-fluorobenzo[d]thiazol-4-yl)-6-chloro-3-cyano-8-fluoroquinolin-2-yl)acetamide], the pIC50 ([2]; read-out: IC50 value) was greater than 7.30.
Compound `C=CC(=O)N1CCN(c2c(C#N)c(C)nc3c(F)c(-c4ccc(F)c5sc(N)nc45)c(Cl)cc23)CC1` [Example 17, 4-(4-Acryloylpiperazin-1-yl)-7-(2-amino-7-fluorobenzo[d]thiazol-4-yl)-6-chloro-8-fluoro-2-methylquinoline-3-carbonitrile] has a pIC50 ([2]; read-out: IC50 value) greater than 7.30.
`C=CC(=O)N1CCN(c2c(C#N)c(N)nc3c(F)c(-c4cccc5sc(N)nc45)c(Cl)cc23)CC1` [Example 33, 4-(4-Acryloylpiperazin-1-yl)-2-amino-7-(2-aminobenzo[d]thiazol-4-yl)-6-chloro-8-fluoroquinoline-3-carbonitrile] gave a pIC50 ([2]; read-out: IC50 value) greater than 7.30.
Compound `C=CC(=O)N1CCN(c2c(C#N)c(-c3cccc(CN(C)C)c3)nc3c(F)c(-c4ccc(F)c5sc(N)nc45)c(Cl)cc23)CC1` [Example 3, 4-(4-Acryloylpiperazin-1-yl)-7-(2-amino-7-fluorobenzo[d]thiazol-4-yl)-6-chloro-2-(3-((dimethylamino)methyl)phenyl)-8-fluoroquinoline-3-carbonitrile] has an inhibition at 1 µM ([2]; 120 h) of 97.7%, a pIC50 ([2]; 120 h, read-out: IC50) of 8.05 and a pIC50 ([2]; read-out: IC50 value) greater than 7.70.
In the case of `C=CC(=O)N1CCN(c2c(C#N)c(-c3cccc(C(C)N(C)C)c3)nc3c(F)c(-c4ccc(F)c5sc(N)nc45)c(Cl)cc23)CC1` (stereo not drawn) [Example 5, 4-(4-Acryloylpiperazin-1-yl)-7-(2-amino-7-fluorobenzo[d]thiazol-4-yl)-6-chloro-2-(3-(1-(dimethylamino)ethyl)phenyl)-8-fluoroquinoline-3-carbonitrile], the inhibition at 1 µM ([2]; 120 h) was 94.9%, the pIC50 ([2]; 120 h, read-out: IC50) was 8.15 and the pIC50 ([2]; read-out: IC50 value) was greater than 7.70.
